Experimental data from the NIST ThermoML archive (doi:10.1016/j.jct.2016.05.021).
± gives the expanded uncertainty stated by the source.

Assays:
[1] = 100 kPa; for speed of sound: Frequency=3 MHz, Sing-around technique in a fixed-path interferometer; for mass density: Vibrating tube method
[2] = refractive index (Na D-line) (dimensionless); conditions: 100 kPa, Standard Abbe refractometry
[3] = xn = mol fraction of the nth substance listed; conditions: 100 kPa, Liquid, x1 = 1; for speed of sound: Frequency=3 MHz, Sing-around technique in a fixed-path interferometer; for mass density: Vibrating tube method
[4] = refractive index (Na D-line) (dimensionless); xn = mol fraction of the nth substance listed; conditions: 100 kPa, Liquid, Standard Abbe refractometry, x1 = 1

CCCC[n+]1ccn(C)c1.O=S(=O)([N-]S(=O)(=O)C(F)(F)F)C(F)(F)F
speed of sound ([1]; 298.15 K, Liquid): 1227.9 ± 1.3 m/s
mass density ([1]; 298.15 K, Liquid): 1433.72 ± 1 kg/m3
speed of sound ([1]; 303.15 K, Liquid): 1216.8 ± 1.3 m/s
mass density ([1]; 303.15 K, Liquid): 1428.95 ± 1 kg/m3
speed of sound ([1]; 308.15 K, Liquid): 1205.8 ± 1.2 m/s
mass density ([1]; 308.15 K, Liquid): 1424.18 ± 1 kg/m3
speed of sound ([1]; 313.15 K, Liquid): 1195 ± 1.2 m/s
mass density ([1]; 313.15 K, Liquid): 1419.41 ± 1 kg/m3
speed of sound ([1]; 318.15 K, Liquid): 1184.2 ± 1.2 m/s
mass density ([1]; 318.15 K, Liquid): 1414.64 ± 1 kg/m3
speed of sound ([1]; 323.15 K, Liquid): 1173.6 ± 1.2 m/s
mass density ([1]; 323.15 K, Liquid): 1409.87 ± 1 kg/m3
refractive index ([2]; 298.15 K, Liquid): 1.42671 ± 0.00033
refractive index ([2]; 303.15 K, Liquid): 1.42523 ± 0.00033
refractive index ([2]; 308.15 K, Liquid): 1.42374 ± 0.00033
refractive index ([2]; 313.15 K, Liquid): 1.42225 ± 0.00033
refractive index ([2]; 318.15 K, Liquid): 1.42076 ± 0.00033
refractive index ([2]; 323.15 K, Liquid): 1.41923 ± 0.00033

O=C1CCCN1 [2-pyrrolidinone]
speed of sound ([1]; 298.15 K, Metastable liquid): 1634.3 ± 1.4 m/s
mass density ([1]; 298.15 K, Metastable liquid): 1107.16 ± 1 kg/m3
speed of sound ([1]; 303.15 K, Metastable liquid): 1617.7 ± 1.4 m/s
mass density ([1]; 303.15 K, Metastable liquid): 1103.07 ± 1 kg/m3
speed of sound ([1]; 308.15 K, Metastable liquid): 1602.3 ± 1.4 m/s
mass density ([1]; 308.15 K, Metastable liquid): 1098.99 ± 1 kg/m3
speed of sound ([1]; 313.15 K, Metastable liquid): 1585.4 ± 1.4 m/s
mass density ([1]; 313.15 K, Metastable liquid): 1094.9 ± 1 kg/m3
speed of sound ([1]; 318.15 K, Metastable liquid): 1569.4 ± 1.4 m/s
mass density ([1]; 318.15 K, Metastable liquid): 1090.82 ± 1 kg/m3
speed of sound ([1]; 323.15 K, Metastable liquid): 1553.5 ± 1.4 m/s
mass density ([1]; 323.15 K, Metastable liquid): 1086.75 ± 1 kg/m3
refractive index ([2]; 298.15 K, Metastable liquid): 1.48591 ± 0.00033
refractive index ([2]; 303.15 K, Metastable liquid): 1.48403 ± 0.00033
refractive index ([2]; 308.15 K, Metastable liquid): 1.48218 ± 0.00033
refractive index ([2]; 313.15 K, Metastable liquid): 1.48033 ± 0.00033
refractive index ([2]; 318.15 K, Metastable liquid): 1.47841 ± 0.00033
refractive index ([2]; 323.15 K, Metastable liquid): 1.47649 ± 0.00033

CCCC[n+]1ccn(C)c1.O=S(=O)([N-]S(=O)(=O)C(F)(F)F)C(F)(F)F + O=C1CCCN1
speed of sound ([3]; 298.15 K): 1227.9 ± 1.3 m/s
mass density ([3]; 298.15 K): 1433.72 ± 1 kg/m3
speed of sound ([3]; 303.15 K): 1216.8 ± 1.3 m/s
mass density ([3]; 303.15 K): 1428.95 ± 1 kg/m3
speed of sound ([3]; 308.15 K): 1205.8 ± 1.2 m/s
mass density ([3]; 308.15 K): 1424.18 ± 1 kg/m3
speed of sound ([3]; 313.15 K): 1195 ± 1.2 m/s
mass density ([3]; 313.15 K): 1419.41 ± 1 kg/m3
speed of sound ([3]; 318.15 K): 1184.2 ± 1.2 m/s
mass density ([3]; 318.15 K): 1414.64 ± 1 kg/m3
speed of sound ([3]; 323.15 K): 1173.6 ± 1.2 m/s
mass density ([3]; 323.15 K): 1409.87 ± 1 kg/m3
refractive index ([4]; 298.15 K): 1.42671 ± 0.00033
refractive index ([4]; 303.15 K): 1.42523 ± 0.00033
refractive index ([4]; 308.15 K): 1.42374 ± 0.00033
refractive index ([4]; 313.15 K): 1.42225 ± 0.00033
refractive index ([4]; 318.15 K): 1.42076 ± 0.00033
refractive index ([4]; 323.15 K): 1.41923 ± 0.00033
